According to ChEMBL document CHEMBL5463721, “Data for DCP probe WEB2086” (2023):

Legend:
[1] = target: cGMP-inhibited 3',5'-cyclic phosphodiesterase 3A (Homo sapiens) (UniProt Q14432); test: Inhibitor of PDE3A in the Eurofins Cerep SafetyScreen44 (BI) by HTRF-homogeneous time resolved fluoresce (Cerep_4072); conditions: Compound concentration 10.0 uM
[2] = target: Cannabinoid receptor 1 (Homo sapiens) (UniProt P21554); test: CB1 Eurofins-Cerep binding assay; conditions: Compound concentration 10.0 uM
[3] = target: Muscarinic acetylcholine receptor M1 (Homo sapiens) (UniProt P11229); test: M1 Eurofins-Cerep binding assay; set-up: ligand concentration 2 nM; conditions: Compound concentration 10.0 uM
[4] = target: MAO-A (amine oxidase [flavin-containing] A) (Homo sapiens, UniProt P21397); test: Agonist activity in the Eurofins Cerep SafetyScreen44 (BI) against MAO-A_ANTAG by Scintillation counting (Cerep_443); set-up: scale not given: the % may be the effect or the level left; conditions: rat, compound concentration 10 uM, read-out: % Ctrl
[5] = target: Histamine H2 receptor (Homo sapiens) (UniProt P25021); test: H2 Eurofins-Cerep binding assay; set-up: ligand concentration 0.075 nM; conditions: Compound concentration 10.0 uM
[6] = target: 3',5'-cyclic-AMP phosphodiesterase 4D (Homo sapiens) (UniProt Q08499); test: Inhibitor of PDE4D2 in the Eurofins Cerep SafetyScreen44 (BI) by Scintillation counting (Cerep_4077); conditions: Compound concentration 10.0 uM
[7] = target: Mu-type opioid receptor (Homo sapiens) (UniProt P35372); test: mu (MOP) Eurofins-Cerep binding assay; set-up: ligand concentration 0.5 nM; conditions: Compound concentration 10.0 uM
[8] = target: Beta-1 adrenergic receptor (Homo sapiens) (UniProt P08588); test: beta 1 Eurofins-Cerep binding assay; set-up: ligand concentration 0.3 nM; conditions: Compound concentration 10.0 uM
[9] = target: Endothelin-1 receptor (Homo sapiens) (UniProt P25101); test: ETA Eurofins-Cerep binding assay; set-up: ligand concentration 0.03 nM; conditions: Compound concentration 10.0 uM
[10] = target: Beta-2 adrenergic receptor (Homo sapiens) (UniProt P07550); test: beta 2 Eurofins-Cerep binding assay; conditions: Compound concentration 10.0 uM
hERG (KCNH2) = hERG (KCNH2) (Homo sapiens, UniProt Q12809); test: Inhibitor of HERG_DOFETILIDE in the Eurofins Cerep SafetyScreen44 (BI) by Scintillation counting (Cerep_4094); set-up: scale not given: the % may be the effect or the level left; conditions: probe [3H] dofetilide, compound concentration 10 uM, read-out: % Ctrl
[11] = target: Sodium-dependent noradrenaline transporter (Homo sapiens) (UniProt P23975); test: norepinephrine transporter Eurofins-Cerep binding assay; set-up: ligand concentration 1 nM; conditions: Compound concentration 10.0 uM
[12] = target: Kappa-type opioid receptor (Homo sapiens) (UniProt P41145); test: kappa (KOP) Eurofins-Cerep binding assay; conditions: Compound concentration 10.0 uM
[13] = target: Prostaglandin G/H synthase 1 (Homo sapiens) (UniProt P23219); test: Inhibitor of COX-1 in the Eurofins Cerep SafetyScreen44 (BI) by Fluorimetry (Cerep_4173); conditions: Compound concentration 10.0 uM
[14] = target: D(2) dopamine receptor (Homo sapiens) (UniProt P14416); test: Agonist activity in the Eurofins Cerep SafetyScreen44 (BI) against D2SH_AGON by Scintillation counting (Cerep_1322); conditions: Compound concentration 10.0 uM
[15] = target: Angiotensin-converting enzyme (Homo sapiens) (UniProt P12821); test: Activity against ACE(HU_AMTCH400) in the Eurofins Cerep SafetyScreen44 (BI) by Photometry (Cerep_3441); conditions: Compound concentration 10.0 uM
[16] = target: Histamine H1 receptor (Homo sapiens) (UniProt P35367); test: H1 Eurofins-Cerep binding assay; set-up: ligand concentration 1 nM; conditions: Compound concentration 10.0 uM
[17] = target: 5-hydroxytryptamine receptor 1A (Homo sapiens) (UniProt P08908); test: 5-HT1A Eurofins-Cerep binding assay; set-up: ligand concentration 0.5 nM; conditions: Compound concentration 10.0 uM
[18] = target: Glutamate NMDA receptor (Rattus norvegicus) (UniProt P35439+Q00959+Q00960+Q00961+Q62645+Q8VHN2+Q9R1M7); test: Inhibitor of NMDA/R in the Eurofins Cerep SafetyScreen44 (BI) by Radioactive Assay (Cerep_66); type: protein-complex assay; conditions: Compound concentration 10.0 uM
[19] = target: Muscarinic acetylcholine receptor M2 (Homo sapiens) (UniProt P08172); test: M2 Eurofins-Cerep binding assay; set-up: ligand concentration 2 nM; conditions: Compound concentration 10.0 uM
[20] = target: Muscarinic acetylcholine receptor M3 (Homo sapiens) (UniProt P20309); test: M3 Eurofins-Cerep binding assay; set-up: ligand concentration 0.2 nM; conditions: Compound concentration 10.0 uM
[21] = target: Sodium-dependent serotonin transporter (Homo sapiens) (UniProt P31645); test: 5-HT transporter Eurofins-Cerep binding assay; set-up: ligand concentration 2 nM; conditions: Compound concentration 10.0 uM
[22] = target: Prostaglandin G/H synthase 2 (Homo sapiens) (UniProt P35354); test: Inhibitor of COX-2 in the Eurofins Cerep SafetyScreen44 (BI) by Fluorimetry (Cerep_4186); conditions: Compound concentration 10.0 uM
[23] = target: Alpha-1A adrenergic receptor (Homo sapiens) (UniProt P35348); test: Agonist activity in the Eurofins Cerep SafetyScreen44 (BI) against ALPHA1AH_ANTAG by Scintillation counting (Cerep_2338); conditions: Compound concentration 10.0 uM
[24] = target: L-type calcium channel (dihydropyridine site), Cav1.2 alpha-1C (Rattus norvegicus, UniProt P22002); test: Inhibitor of CA+/DHPSI/R in the Eurofins Cerep SafetyScreen44 (BI) by Radioactive Assay (Cerep_161); type: protein assay; set-up: scale not given: the % may be the effect or the level left; conditions: rat brain, probe [3H](+)PN200-110, compound concentration 10 uM, read-out: % Ctrl
[25] = target: Delta-type opioid receptor (Homo sapiens) (UniProt P41143); test: delta (DOP) Eurofins-Cerep binding assay; set-up: ligand concentration 0.5 nM; conditions: Compound concentration 10.0 uM
[26] = target: Alpha-2A adrenergic receptor (Homo sapiens) (UniProt P08913); test: Inhibitor of ALPHA2A/HU in the Eurofins Cerep SafetyScreen44 (BI) by Radioactive Assay (Cerep_13); conditions: Compound concentration 10.0 uM
Rattus norvegicus [27] = species on record: Rattus norvegicus; test: Activity against BZD/CENTR/R in the Eurofins Cerep SafetyScreen44 (BI) by Radioactive Assay (Cerep_28); type: protein-complex assay; conditions: Compound concentration 10.0 uM
[28] = target: Tyrosine-protein kinase Lck (Homo sapiens) (UniProt P06239); test: Inhibitor of LCK_CE in the Eurofins Cerep SafetyScreen44 (BI) by lanthanide chelation excitation (Cerep_2906); conditions: Compound concentration 10.0 uM
[29] = target: Vasopressin V1a receptor (Homo sapiens) (UniProt P37288); test: V1a Eurofins-Cerep binding assay; set-up: ligand concentration 0.3 nM; conditions: Compound concentration 10.0 uM
[30] = target: 5-hydroxytryptamine receptor 3A (Homo sapiens) (UniProt P46098); test: 5-HT3 Eurofins-Cerep binding assay; set-up: ligand concentration 0.5 nM; conditions: Compound concentration 10.0 uM
[31] = target: 5-hydroxytryptamine receptor 2A (Homo sapiens) (UniProt P28223); test: Agonist activity in the Eurofins Cerep SafetyScreen44 (BI) against 5HT2AH_AGON by Scintillation counting (Cerep_471); conditions: Compound concentration 10.0 uM
[32] = target: Sodium-dependent dopamine transporter (Homo sapiens) (UniProt Q01959); test: dopamine transporter Eurofins-Cerep binding assay; conditions: Compound concentration 10.0 uM
[33] = target: 5-hydroxytryptamine receptor 2B (Homo sapiens) (UniProt P41595); test: 5-HT2B Eurofins-Cerep binding assay; conditions: Compound concentration 10.0 uM
[34] = target: Adenosine receptor A2a (Homo sapiens) (UniProt P29274); test: A2A Eurofins-Cerep binding assay; set-up: ligand concentration 6 nM; conditions: Compound concentration 10.0 uM
[35] = target: Cholecystokinin receptor type A (Homo sapiens) (UniProt P32238); test: CCK1 (CCKA) Eurofins-Cerep binding assay; set-up: ligand concentration 0.08 nM; conditions: Compound concentration 10.0 uM
[36] = target: 5-hydroxytryptamine receptor 1B (Homo sapiens) (UniProt P28222); test: 5-HT1B Eurofins-Cerep binding assay; set-up: ligand concentration 1 nM; conditions: Compound concentration 10.0 uM
[37] = target: D(1A) dopamine receptor (Homo sapiens) (UniProt P21728); test: D1 Eurofins-Cerep binding assay; set-up: ligand concentration 0.3 nM; conditions: Compound concentration 10.0 uM
[38] = target: Glucocorticoid receptor (Homo sapiens) (UniProt P04150); test: GR Eurofins-Cerep binding assay; conditions: Compound concentration 10.0 uM
Homo sapiens = species on record: Homo sapiens; test: Agonist activity in the Eurofins Cerep SafetyScreen44 (BI) against N_NEURO_A4B2 by Radioligand Binding (Cerep_3029); type: protein-complex assay; conditions: Compound concentration 10.0 uM
Rattus norvegicus [39] = species on record: Rattus norvegicus; test: KV channel Eurofins-Cerep binding assay; set-up: ligand concentration 0.01 nM; conditions: Compound concentration 10.0 uM
[40] = target: Cannabinoid receptor 2 (Homo sapiens) (UniProt P34972); test: Activity against CB2/PERIPH/H in the Eurofins Cerep SafetyScreen44 (BI) by Radioactive Assay (Cerep_37); conditions: Compound concentration 10.0 uM
[41] = target: Androgen receptor (Homo sapiens) (UniProt P10275); conditions: Compound concentration 10.0 uM
Description: Activity against ANDROGEN/H in the Eurofins Cerep SafetyScreen44 (BI) by Radioactive Assay (Cerep_933)

[42] = target: Platelet-activating factor receptor (Homo sapiens, UniProt P25105); test: PAF Receptor Binding

Sequence of 3',5'-cyclic-AMP phosphodiesterase 4D (Homo sapiens) (Q08499 whole entry): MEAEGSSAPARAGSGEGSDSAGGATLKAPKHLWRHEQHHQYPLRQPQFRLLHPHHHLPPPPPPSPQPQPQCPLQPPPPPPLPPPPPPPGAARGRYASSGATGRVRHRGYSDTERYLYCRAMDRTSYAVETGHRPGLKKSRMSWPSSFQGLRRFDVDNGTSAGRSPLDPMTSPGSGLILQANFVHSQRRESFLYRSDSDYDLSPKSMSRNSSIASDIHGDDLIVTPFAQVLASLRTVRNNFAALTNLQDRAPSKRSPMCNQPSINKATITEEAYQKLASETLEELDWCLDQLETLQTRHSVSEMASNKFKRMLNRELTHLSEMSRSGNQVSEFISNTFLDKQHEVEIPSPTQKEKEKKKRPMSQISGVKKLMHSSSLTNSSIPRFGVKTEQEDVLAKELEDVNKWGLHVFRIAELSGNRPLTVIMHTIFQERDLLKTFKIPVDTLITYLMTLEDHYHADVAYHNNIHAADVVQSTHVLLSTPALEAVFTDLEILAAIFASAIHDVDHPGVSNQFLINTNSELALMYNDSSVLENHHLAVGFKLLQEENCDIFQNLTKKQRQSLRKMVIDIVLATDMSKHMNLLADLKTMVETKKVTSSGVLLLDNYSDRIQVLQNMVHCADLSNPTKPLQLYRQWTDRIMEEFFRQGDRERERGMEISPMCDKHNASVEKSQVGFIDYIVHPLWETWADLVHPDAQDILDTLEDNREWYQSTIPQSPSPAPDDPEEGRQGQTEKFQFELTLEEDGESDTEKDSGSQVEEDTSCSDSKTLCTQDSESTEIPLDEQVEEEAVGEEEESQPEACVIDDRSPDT
Sequence of Adenosine receptor A2a (Homo sapiens) (P29274 whole entry): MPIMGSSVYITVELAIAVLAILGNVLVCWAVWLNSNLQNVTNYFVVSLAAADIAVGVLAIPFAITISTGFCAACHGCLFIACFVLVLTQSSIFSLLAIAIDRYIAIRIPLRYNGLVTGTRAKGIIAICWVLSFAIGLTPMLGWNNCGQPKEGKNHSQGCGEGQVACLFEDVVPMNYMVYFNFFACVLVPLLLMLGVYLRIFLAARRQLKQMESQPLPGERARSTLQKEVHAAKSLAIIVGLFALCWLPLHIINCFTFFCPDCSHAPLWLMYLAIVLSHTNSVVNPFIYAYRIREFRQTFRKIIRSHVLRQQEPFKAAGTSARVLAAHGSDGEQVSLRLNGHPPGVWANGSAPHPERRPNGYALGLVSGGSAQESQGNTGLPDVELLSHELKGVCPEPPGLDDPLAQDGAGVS
Sequence of Sodium-dependent dopamine transporter (Homo sapiens) (Q01959 whole entry): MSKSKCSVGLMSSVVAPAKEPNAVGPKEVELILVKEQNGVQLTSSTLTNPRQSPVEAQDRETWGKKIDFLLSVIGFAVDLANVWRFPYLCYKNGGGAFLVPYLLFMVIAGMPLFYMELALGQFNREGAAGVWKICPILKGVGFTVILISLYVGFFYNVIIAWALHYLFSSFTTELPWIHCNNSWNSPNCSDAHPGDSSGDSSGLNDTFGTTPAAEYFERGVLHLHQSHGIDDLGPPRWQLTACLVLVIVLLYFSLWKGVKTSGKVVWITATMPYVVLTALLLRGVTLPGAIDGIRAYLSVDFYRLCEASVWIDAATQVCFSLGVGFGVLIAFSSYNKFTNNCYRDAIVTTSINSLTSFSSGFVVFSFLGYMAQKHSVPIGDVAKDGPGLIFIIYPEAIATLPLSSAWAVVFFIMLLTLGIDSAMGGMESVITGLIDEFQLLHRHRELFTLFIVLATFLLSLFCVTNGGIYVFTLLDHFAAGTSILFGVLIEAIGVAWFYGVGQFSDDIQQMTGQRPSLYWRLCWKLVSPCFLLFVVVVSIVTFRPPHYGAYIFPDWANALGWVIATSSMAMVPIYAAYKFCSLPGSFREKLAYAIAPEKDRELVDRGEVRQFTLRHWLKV
Sequence of 5-hydroxytryptamine receptor 3A (Homo sapiens) (P46098 whole entry): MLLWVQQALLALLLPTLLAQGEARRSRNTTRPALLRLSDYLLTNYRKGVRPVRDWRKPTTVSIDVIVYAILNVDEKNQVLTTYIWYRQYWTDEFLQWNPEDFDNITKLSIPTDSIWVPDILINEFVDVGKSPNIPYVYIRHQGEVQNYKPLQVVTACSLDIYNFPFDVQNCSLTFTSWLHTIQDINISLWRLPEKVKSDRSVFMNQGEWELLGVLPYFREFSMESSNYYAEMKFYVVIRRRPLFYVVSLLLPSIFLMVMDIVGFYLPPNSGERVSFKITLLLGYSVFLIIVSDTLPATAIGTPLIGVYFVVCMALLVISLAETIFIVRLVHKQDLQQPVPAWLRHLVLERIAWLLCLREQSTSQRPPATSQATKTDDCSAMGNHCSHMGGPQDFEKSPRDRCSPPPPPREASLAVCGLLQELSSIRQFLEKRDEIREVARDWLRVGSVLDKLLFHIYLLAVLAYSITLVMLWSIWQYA
Sequence of Vasopressin V1a receptor (Homo sapiens) (P37288 whole entry, looked up): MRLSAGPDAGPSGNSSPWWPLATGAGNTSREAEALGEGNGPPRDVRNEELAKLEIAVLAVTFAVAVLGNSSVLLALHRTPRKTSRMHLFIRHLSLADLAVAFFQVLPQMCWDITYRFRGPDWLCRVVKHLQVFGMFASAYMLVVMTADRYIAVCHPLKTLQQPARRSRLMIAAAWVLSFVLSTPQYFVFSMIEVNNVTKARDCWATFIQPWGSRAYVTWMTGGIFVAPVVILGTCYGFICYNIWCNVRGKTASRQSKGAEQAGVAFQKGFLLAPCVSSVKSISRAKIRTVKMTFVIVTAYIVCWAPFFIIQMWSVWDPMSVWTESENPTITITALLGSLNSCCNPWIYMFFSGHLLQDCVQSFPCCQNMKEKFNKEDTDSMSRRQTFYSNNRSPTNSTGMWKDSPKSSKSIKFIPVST
Sequence of Muscarinic acetylcholine receptor M3 (Homo sapiens) (P20309 whole entry, looked up): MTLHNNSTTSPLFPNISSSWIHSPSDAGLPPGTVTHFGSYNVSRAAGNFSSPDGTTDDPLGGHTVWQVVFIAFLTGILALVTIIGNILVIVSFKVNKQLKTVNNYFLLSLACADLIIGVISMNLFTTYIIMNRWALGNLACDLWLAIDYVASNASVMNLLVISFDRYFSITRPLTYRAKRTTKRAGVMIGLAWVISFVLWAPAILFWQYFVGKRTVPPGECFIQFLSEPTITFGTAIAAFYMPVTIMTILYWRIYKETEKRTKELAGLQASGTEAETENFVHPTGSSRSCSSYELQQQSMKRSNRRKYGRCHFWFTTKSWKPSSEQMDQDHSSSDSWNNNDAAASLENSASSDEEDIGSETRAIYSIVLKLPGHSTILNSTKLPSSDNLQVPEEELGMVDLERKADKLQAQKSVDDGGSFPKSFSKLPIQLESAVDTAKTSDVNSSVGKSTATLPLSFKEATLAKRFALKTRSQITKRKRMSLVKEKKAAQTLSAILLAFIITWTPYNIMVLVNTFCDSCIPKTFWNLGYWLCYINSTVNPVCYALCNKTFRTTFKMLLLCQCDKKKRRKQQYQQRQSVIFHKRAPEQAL
Sequence of Muscarinic acetylcholine receptor M1 (Homo sapiens) (P11229 whole entry): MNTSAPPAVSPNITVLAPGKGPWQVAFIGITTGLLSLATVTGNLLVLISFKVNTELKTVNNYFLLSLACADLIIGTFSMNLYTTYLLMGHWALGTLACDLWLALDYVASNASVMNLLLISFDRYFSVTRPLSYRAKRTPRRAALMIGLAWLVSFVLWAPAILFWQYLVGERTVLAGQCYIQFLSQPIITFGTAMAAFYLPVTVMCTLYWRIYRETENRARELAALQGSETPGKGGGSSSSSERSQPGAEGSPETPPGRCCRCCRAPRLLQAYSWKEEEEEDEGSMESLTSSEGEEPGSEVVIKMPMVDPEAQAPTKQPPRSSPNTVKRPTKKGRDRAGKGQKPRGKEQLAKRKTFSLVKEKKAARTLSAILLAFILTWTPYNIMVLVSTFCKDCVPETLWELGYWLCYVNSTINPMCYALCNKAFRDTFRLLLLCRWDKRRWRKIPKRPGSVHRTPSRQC
Sequence of cGMP-inhibited 3',5'-cyclic phosphodiesterase 3A (Homo sapiens) (Q14432 whole entry): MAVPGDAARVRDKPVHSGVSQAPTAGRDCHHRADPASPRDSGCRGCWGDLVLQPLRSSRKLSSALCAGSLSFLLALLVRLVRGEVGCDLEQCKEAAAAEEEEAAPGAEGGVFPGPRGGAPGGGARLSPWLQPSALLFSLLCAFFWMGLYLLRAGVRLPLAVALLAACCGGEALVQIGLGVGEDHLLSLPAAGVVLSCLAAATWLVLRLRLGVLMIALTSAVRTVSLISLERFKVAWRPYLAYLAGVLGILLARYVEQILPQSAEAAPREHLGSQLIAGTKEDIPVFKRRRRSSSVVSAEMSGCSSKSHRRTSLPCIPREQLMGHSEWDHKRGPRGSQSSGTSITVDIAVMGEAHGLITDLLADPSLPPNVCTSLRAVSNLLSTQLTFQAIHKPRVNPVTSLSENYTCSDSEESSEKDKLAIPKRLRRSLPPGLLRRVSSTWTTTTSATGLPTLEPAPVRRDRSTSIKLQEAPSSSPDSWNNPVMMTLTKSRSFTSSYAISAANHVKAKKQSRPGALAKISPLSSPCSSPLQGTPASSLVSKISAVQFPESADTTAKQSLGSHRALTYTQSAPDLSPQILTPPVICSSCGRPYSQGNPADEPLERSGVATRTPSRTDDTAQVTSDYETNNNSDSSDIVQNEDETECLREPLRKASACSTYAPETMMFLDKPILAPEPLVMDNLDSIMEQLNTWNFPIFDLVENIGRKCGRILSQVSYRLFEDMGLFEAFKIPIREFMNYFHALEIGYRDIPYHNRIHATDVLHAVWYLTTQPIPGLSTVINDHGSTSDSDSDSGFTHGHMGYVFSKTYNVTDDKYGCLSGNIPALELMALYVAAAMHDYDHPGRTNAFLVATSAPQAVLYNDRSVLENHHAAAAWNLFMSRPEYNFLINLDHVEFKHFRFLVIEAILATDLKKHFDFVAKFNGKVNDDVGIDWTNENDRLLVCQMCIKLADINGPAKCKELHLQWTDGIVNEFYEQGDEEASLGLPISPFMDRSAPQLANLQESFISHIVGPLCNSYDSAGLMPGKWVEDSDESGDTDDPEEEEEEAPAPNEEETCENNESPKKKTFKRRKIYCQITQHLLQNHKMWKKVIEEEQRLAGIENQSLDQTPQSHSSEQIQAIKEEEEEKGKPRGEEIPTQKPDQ

Cc1nnc2n1-c1sc(CCC(=O)N3CCOCC3)cc1C(c1ccccc1Cl)=NC2 [APAFANT]
93% (not active): activity at 10 µM [4]
106% (not active): activity at 10 µM [24]
active: residual activity [22] 47% | residual activity (Rattus norvegicus [27]) 12%
105% (not active): activity at 10 µM (hERG (KCNH2))
inactive: residual activity [1] 105% | residual activity [2] 103% | residual activity [3] 107% | residual activity [5] 108% | residual activity [6] 103% | residual activity [7] 108% | residual activity [8] 101% | residual activity [9] 106% | residual activity [10] 107% | residual activity [11] 94% | residual activity [12] 95% | residual activity [13] 96% | residual activity [14] 114% | residual activity [15] 96% | residual activity [16] 101% | residual activity [17] 101% | residual activity [18] 101% | residual activity [19] 98% | residual activity [20] 98% | residual activity [21] 106% | residual activity [23] 99% | residual activity [25] 99% | residual activity [26] 100% | residual activity [28] 123% | residual activity [29] 109% | residual activity [30] 102% | residual activity [31] 114% | residual activity [32] 97% | residual activity [33] 86% | residual activity [34] 104% | residual activity [35] 90% | residual activity [36] 91% | residual activity [37] 101% | residual activity [38] 105% | residual activity (Homo sapiens) 104% | residual activity (Rattus norvegicus [39]) 94% | residual activity [40] 111%

Cc1nnc2n1-c1sc3c(c1C(c1ccccc1Cl)=NC2)C[C@@H](C(=O)N1CCOCC1)C3
93% (not active): activity at 10 µM (hERG (KCNH2))
103% (not active): activity at 10 µM [24]
inactive: residual activity [1] 109% | residual activity [2] 123% | residual activity [3] 104% | residual activity [5] 100% | residual activity [6] 104% | residual activity [7] 109% | residual activity [8] 88% | residual activity [41] 106% | residual activity [9] 103% | residual activity [10] 103% | residual activity [11] 99% | residual activity [12] 91% | residual activity [13] 97% | residual activity [14] 97% | residual activity [15] 102% | residual activity [16] 100% | residual activity [17] 88% | residual activity [18] 97% | residual activity [19] 82% | residual activity [20] 84% | residual activity [21] 98% | residual activity [22] 96% | residual activity [23] 95% | residual activity [25] 101% | residual activity [26] 102% | residual activity (Rattus norvegicus [27]) 102% | residual activity [28] 106% | residual activity [29] 84% | residual activity [30] 103% | residual activity [31] 100% | residual activity [32] 96% | residual activity [33] 92% | residual activity [34] 106% | residual activity [35] 90% | residual activity [36] 65% | residual activity [37] 97% | residual activity [38] 115% | residual activity (Homo sapiens) 94% | residual activity (Rattus norvegicus [39]) 101% | residual activity [40] 107%
0.66 µM (not active): Kd [42]
107% (not active): activity at 10 µM ([4]; target entry is the homologue from another species)
